Results as given in ChEMBL document CHEMBL1909046, “DrugMatrix in vitro pharmacology data”.
*1 amine or outer side, *2 acyl side, *3 side chain or, on linkers, in order; H or OH if unused. Where a SMILES comes first, the peptide text is derived from it. Bridges are numbered along the chain shown (N, C = ends). Roman numbers before positions name the chains, in order. [ ]: non-standard residue; d: D form. Actinocin(1to9) = Cc1c2oc3c(C)ccc(C(=O)[*:2])c3nc-2c(C(=O)[*:1])c(N)c1=O; NMeV = CN[C@H](C(=O)O)C(C)C; Sar = CNCC(=O)O

How the values were obtained:
[1] = molecular target: C-C chemokine receptor type 2 (Homo sapiens, UniProt P41597); assay type: cell membranes, CHO-K1, Membrane; conditions: cho-k1; further: in other assays of this panel Not Active means under 50% inhibition at 10 µM
Chain of C-C chemokine receptor type 2 (P41597 whole entry): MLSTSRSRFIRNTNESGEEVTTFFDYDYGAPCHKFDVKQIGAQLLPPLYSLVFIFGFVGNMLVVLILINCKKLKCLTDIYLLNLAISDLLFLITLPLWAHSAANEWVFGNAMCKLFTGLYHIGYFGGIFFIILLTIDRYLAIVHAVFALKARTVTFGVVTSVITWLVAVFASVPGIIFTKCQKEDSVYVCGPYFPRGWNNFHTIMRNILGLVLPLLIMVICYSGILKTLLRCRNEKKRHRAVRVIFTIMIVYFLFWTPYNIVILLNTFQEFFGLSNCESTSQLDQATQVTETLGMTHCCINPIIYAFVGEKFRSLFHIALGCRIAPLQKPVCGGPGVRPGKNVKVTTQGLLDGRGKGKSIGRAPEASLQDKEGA

[2] = DRUGMATRIX: Calcium Channel Type L, Benzothiazepine radioligand binding (ligand: [3H] Diltiazem); assay type: cell membranes, Rattus norvegicus, Wistar, Brain, Membrane; conditions: Not Active = under 50% inhibition at 10 µM
Histamine H2 receptor = Histamine H2 receptor (Homo sapiens, UniProt P25021); assay type: cell membranes, CHO-K1, Membrane; conditions: cho-k1; further: in other assays of this panel Not Active means under 50% inhibition at 10 µM
Chain of Histamine H2 receptor (P25021 whole entry): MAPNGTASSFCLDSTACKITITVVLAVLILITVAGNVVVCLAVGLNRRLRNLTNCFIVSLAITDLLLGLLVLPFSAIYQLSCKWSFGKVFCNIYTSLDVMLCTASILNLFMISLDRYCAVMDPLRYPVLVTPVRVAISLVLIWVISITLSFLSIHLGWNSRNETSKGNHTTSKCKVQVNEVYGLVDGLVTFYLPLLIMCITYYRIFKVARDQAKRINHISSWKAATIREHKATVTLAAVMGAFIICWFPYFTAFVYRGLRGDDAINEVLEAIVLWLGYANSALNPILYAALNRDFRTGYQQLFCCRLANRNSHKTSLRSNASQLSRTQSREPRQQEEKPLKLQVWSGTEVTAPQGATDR

[3] = DRUGMATRIX: Phorbol Ester radioligand binding (ligand: [3H] PDBu); assay type: cell membranes, Mus musculus, ICR, Brain, Membrane; conditions: Not Active = under 50% inhibition at 10 µM
[4] = molecular target: T1, Alpha-1B adrenergic receptor (Rattus norvegicus, UniProt P15823); assay: DRUGMATRIX: Alpha-1B adrenergic receptor radioligand binding (ligand: prazosin); assay type: cell membranes, Wistar, Liver, Membrane; conditions: Not Active = under 50% inhibition at 10 µM; for Ki: read-out: Ki
T1 sequence (P15823 whole entry): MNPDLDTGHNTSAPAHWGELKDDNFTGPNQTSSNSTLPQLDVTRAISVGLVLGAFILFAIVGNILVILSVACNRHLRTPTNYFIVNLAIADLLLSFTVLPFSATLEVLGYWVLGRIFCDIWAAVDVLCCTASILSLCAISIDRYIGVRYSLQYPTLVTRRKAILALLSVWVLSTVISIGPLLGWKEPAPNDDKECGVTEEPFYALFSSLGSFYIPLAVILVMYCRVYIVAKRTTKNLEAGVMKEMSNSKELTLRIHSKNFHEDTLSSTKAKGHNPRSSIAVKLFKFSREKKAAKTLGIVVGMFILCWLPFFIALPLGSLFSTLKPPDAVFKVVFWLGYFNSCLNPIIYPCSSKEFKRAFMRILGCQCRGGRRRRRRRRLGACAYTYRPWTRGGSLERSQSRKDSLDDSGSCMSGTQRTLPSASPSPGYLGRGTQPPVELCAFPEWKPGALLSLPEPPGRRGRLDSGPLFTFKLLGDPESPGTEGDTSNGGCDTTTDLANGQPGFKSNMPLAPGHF

[5] = molecular target: Aldo-keto reductase family 1 member B1 (Rattus norvegicus, UniProt P07943); assay: biochemical; assay type: tissue-based, Lens of camera-type eye;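 further: inhibition of aldose reductase enzyme activity, measured with DL-glyceraldehyde as the substrate; in other assays of this panel Not Active means under 50% inhibition at 10 µM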

| Structure (SMILES) | IC50 [1] | IC50 [2] | Ki [2] | IC50 (Histamine H2 receptor) | IC50 [3] | Ki [3] | IC50 [4] | IC50 [5] | IC50 ([5]; read-out: IC50) | IC50 ([4]; read-out: IC50) | Ki [4] |
| --- | --- | --- | --- | --- | --- | --- | --- | --- | --- | --- | --- |
| C[C@H](CCC(=O)O)[C@H]1CC[C@H]2[C@@H]3[C@H](O)C[C@@H]4C[C@H](O)CC[C@]4(C)[C@H]3C[C@H](O)[C@]12C [CHOLIC ACID] | Not Active | Not Active | Not Active | Not Active | Not Active | Not Active | Not Active | Not Active | – | – | – |
| Cc1cc(C2CCCCC2)n(O)c(=O)c1 [CICLOPIROX] | Not Active | Not Active | Not Active | Not Active | Not Active | Not Active | Not Active | Not Active | – | – | – |
| CC1=C2C(=CO[C@H](C)[C@H]2C)C(O)=C(C(=O)O)C1=O [CITRININ] | Not Active | Not Active | Not Active | Not Active | Not Active | Not Active | Not Active | Not Active | – | – | – |
| CC(C)(C)NCC(O)c1cc(Cl)c(N)c(Cl)c1 (configuration not stated) [CLENBUTEROL] | Not Active | Not Active | Not Active | Not Active | Not Active | Not Active | Not Active | Not Active | – | – | – |
| CC(C)(Oc1ccc(Cl)cc1)C(=O)O [CLOFIBRIC ACID] | Not Active | Not Active | Not Active | Not Active | Not Active | Not Active | Not Active | Not Active | – | – | – |
| Cc1cc(C(C#N)c2ccc(Cl)cc2)c(Cl)cc1NC(=O)c1cc(I)cc(I)c1O (configuration not stated) [CLOSANTEL] | Not Active | Not Active | Not Active | Not Active | Not Active | Not Active | Not Active | Not Active | – | – | – |
| Cc1onc(-c2ccccc2Cl)c1C(=O)N[C@@H]1C(=O)N2[C@@H]1SC(C)(C)[C@@H]2C(=O)O [CLOXACILLIN] | Not Active | Not Active | Not Active | Not Active | Not Active | Not Active | Not Active | Not Active | – | – | – |
| CC1CC(OC(=O)C(O)c2ccccc2)CC(C)(C)C1 (configuration not stated) [CYCLANDELATE] | Not Active | Not Active | Not Active | Not Active | Not Active | Not Active | Not Active | Not Active | – | – | – |
| Cc1c2oc3c(C)ccc(C(=O)N[C@@H]4C(=O)N[C@H](C(C)C)C(=O)N5CCC[C@H]5C(=O)N(C)CC(=O)N(C)[C@@H](C(C)C)C(=O)O[C@@H]4C)c3nc-2c(C(=O)N[C@@H]2C(=O)N[C@H](C(C)C)C(=O)N3CCC[C@H]3C(=O)N(C)CC(=O)N(C)[C@@H](C(C)C)C(=O)O[C@@H]2C)c(N)c1=O [DACTINOMYCIN] (I: T[dV]P[Sar][NMeV] / II: T[dV]P[Sar][NMeV]; ester I:1-I:C, II:1-II:C; linker I:N-II:N via Actinocin(1to9)) | Not Active | Not Active | Not Active | Not Active | Not Active | Not Active | Not Active | Not Active | – | – | – |
| Cc1c(O)c(=O)ccn1C [DEFERIPRONE] | Not Active | Not Active | Not Active | Not Active | Not Active | Not Active | Not Active | Not Active | – | – | – |
| CNCCCN1c2ccccc2CCc2ccccc21 [DESIPRAMINE] | Not Active | Not Active | Not Active | Not Active | Not Active | Not Active | Not Active | Not Active | – | – | – |
| O=c1oc2ccccc2c(O)c1Cc1c(O)c2ccccc2oc1=O [DICUMAROL] | Not Active | Not Active | Not Active | Not Active | Not Active | Not Active | Not Active | – | 4090 nM | – | – |
| C[C@H]1O[C@@H](O[C@H]2[C@@H](O)C[C@H](O[C@H]3[C@@H](O)C[C@H](O[C@H]4CC[C@@]5(C)[C@H](CC[C@@H]6[C@@H]5C[C@@H](O)[C@]5(C)[C@@H](C7=CC(=O)OC7)CC[C@]65O)C4)O[C@@H]3C)O[C@@H]2C)C[C@H](O)[C@@H]1O [DIGOXIN] | Not Active | Not Active | Not Active | Not Active | Not Active | Not Active | Not Active | Not Active | – | – | – |
| CC(C)[C@@]1(NC(=O)[C@@H]2C[C@@H]3c4cccc5[nH]cc(c45)C[C@H]3N(C)C2)O[C@@]2(O)[C@@H]3CCCN3C(=O)[C@H](Cc3ccccc3)N2C1=O.CS(=O)(=O)O [DIHYDROERGOCRISTINE MESYLATE] | Not Active | Not Active | Not Active | Not Active | Not Active | Not Active | – | Not Active | – | 2.3 nM | 1.27 nM |
| CC(=O)O[C@@]12CO[C@@H]1C[C@H](O)[C@@]1(C)C(=O)[C@H](O)C3=C(C)[C@@H](OC(=O)[C@H](O)[C@@H](NC(=O)OC(C)(C)C)c4ccccc4)C[C@@](O)([C@@H](OC(=O)c4ccccc4)[C@H]21)C3(C)C.O.O.O [DOCETAXEL] | Not Active | Not Active | Not Active | Not Active | Not Active | Not Active | Not Active | Not Active | – | – | – |
| COc1cc2nc(N3CCN(C(=O)C4COc5ccccc5O4)CC3)nc(N)c2cc1OC (configuration not stated) [DOXAZOSIN] | Not Active | Not Active | Not Active | Not Active | Not Active | Not Active | – | Not Active | – | 0.751 nM | 0.416 nM |
| C[C@H]1c2cccc(O)c2C(=O)C2=C(O)[C@]3(O)C(=O)C(C(N)=O)=C(O)[C@@H](N(C)C)[C@@H]3[C@@H](O)[C@@H]21.O [DOXYCYCLINE] | Not Active | Not Active | Not Active | Not Active | Not Active | Not Active | Not Active | Not Active | – | – | – |
| O=C(CCCN1CC=C(n2c(=O)[nH]c3ccccc32)CC1)c1ccc(F)cc1 [DROPERIDOL] | Not Active | Not Active | Not Active | Not Active | Not Active | Not Active | – | Not Active | – | 18 nM | 9.78 nM |
| CC(C)[C@H]1C(=O)N2CCC[C@H]2[C@]2(O)O[C@](NC(=O)[C@@H]3C=C4c5cccc6[nH]cc(c56)C[C@H]4N(C)C3)(C(C)C)C(=O)N12 [ERGOCORNINE] | Not Active | Not Active | Not Active | Not Active | Not Active | Not Active | – | Not Active | – | 5.19 nM | 2.87 nM |
| C[C@]12CC[C@@H]3c4ccc(O)cc4CC[C@H]3[C@@H]1CCC2=O [ESTRONE] | Not Active | Not Active | Not Active | Not Active | Not Active | Not Active | Not Active | Not Active | – | – | – |
| OC(Cn1cncn1)(Cn1cncn1)c1ccc(F)cc1F [FLUCONAZOLE] | Not Active | Not Active | Not Active | Not Active | Not Active | Not Active | Not Active | Not Active | – | – | – |
| CC(C)C(=O)Nc1ccc([N+](=O)[O-])c(C(F)(F)F)c1 [FLUTAMIDE] | Not Active | Not Active | Not Active | Not Active | Not Active | Not Active | Not Active | Not Active | – | – | – |
| N=C(N)NCCN1CCCCCCC1 [GUANETHIDINE] | Not Active | Not Active | Not Active | Not Active | Not Active | Not Active | Not Active | Not Active | – | – | – |
| CC1(C)O[C@@H]2C[C@H]3[C@@H]4CCC5=CC(=O)CC[C@]5(C)[C@@]4(F)[C@@H](O)C[C@]3(C)[C@]2(C(=O)CCl)O1 [HALCINONIDE] | Not Active | Not Active | Not Active | Not Active | Not Active | Not Active | Not Active | Not Active | – | – | – |
| O=c1[nH]c(=O)n([C@H]2C[C@H](O)[C@@H](CO)O2)cc1I [IDOXURIDINE] | Not Active | Not Active | Not Active | Not Active | Not Active | Not Active | Not Active | Not Active | – | – | – |
| CC1Cc2ccccc2N1NC(=O)c1ccc(Cl)c(S(N)(=O)=O)c1 (configuration not stated) [INDAPAMIDE] | Not Active | Not Active | Not Active | Not Active | Not Active | Not Active | Not Active | Not Active | – | – | – |
